Measurements: patent US8802597B2, “Herbicidal pyrimidines” (E I du Pont de Nemours and Company, priority 2003, dated 2014)
Read-outs that look alike come from different tables or passages of the source.

How the values were obtained:
Format in all cases: in vivo
[1] = test system: Surinam grass (Brachiaria decumbens); test: Test C pre/postemergence; conditions: Urochloa decumbens; for pest or weed control at 125 g/ha: 125 g ai/ha; for pest or weed control at 62 g/ha: 62 g ai/ha
Procedure, shortened: (§1)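 We sprayed seeded pots preemergence and 2–18 cm seedlings postemergence with test chemicals in a non-phytotoxic solvent mixture including surfactant. Greenhouse plants were visually compared with untreated controls at 12 to 14 days and scored 0 (no effect) to 100 (complete control).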

corn (Zea mays) = test: Test C pre/postemergence; conditions: Zea mays; for Corn plant response rating (crop injury, 0 = no effect, 100 = complete kill) at 31 g/ha: 31 g ai/ha; for Corn plant response rating (crop injury, 0 = no effect, 100 = complete kill) at 62 g/ha: 62 g ai/ha; for Corn plant response rating (crop injury, 0 = no effect, 100 = complete kill) at 125 g/ha: 125 g ai/ha
Procedure, shortened: as §1

[2] = test system: goosegrass (Eleusine indica); test: Test C pre/postemergence; conditions: Eleusine indica; for pest or weed control at 31 g/ha: 31 g ai/ha; for pest or weed control at 62 g/ha: 62 g ai/ha; for pest or weed control at 125 g/ha: 125 g ai/ha; for pest or weed control at 250 g/ha: 250 g ai/ha
Procedure, shortened: as §1

[3] = test system: Italian ryegrass (Lolium multiflorum); test: Test C postemergence
Procedure, shortened: as §1

[4] = test system: blackgrass (Alopecurus myosuroides); test: Test C postemergence
Procedure, shortened: as §1

[5] = test system: canarygrass (Phalaris minor); test: Test C postemergence
Procedure, shortened: as §1

[6] = test system: downy brome (Bromus tectorum); test: Test C postemergence
Procedure, shortened: as §1

[7] = test system: green foxtail (Setaria viridis); test: Test C postemergence
Procedure, shortened: as §1

[8] = test system: wheat (Triticum aestivum); test: Test C postemergence
Procedure, shortened: as §1

wild oat (Avena fatua) = test: Test C postemergence
Procedure, shortened: as §1

[9] = test system: windgrass (Apera spica-venti); test: Test C postemergence
Procedure, shortened: as §1

[10] = test system: winter barley (Hordeum vulgare); test: Test C postemergence
Procedure, shortened: as §1

[11] = test system: purple redstem (Ammannia coccinea); test: Test E flooded paddy water application; conditions: Flood, 21 days, scale 0 to 100 (0 no effect, 100 complete control)
Procedure, shortened: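 Response scored visually on a 0–100 scale (100 = complete control) at 21 days against untreated pots. Treatment was into paddy water 3 cm deep over silt loam, with plants at the 2.0–2.5-leaf stage, grown under 16-h light at 29.5/26.7 °C day/night.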

[12] = post-emergence, Postemergence, scale 0 to 100 (0 no effect, 100 complete control), read-out: Surinam Grass plant response rating
[13] = post-emergence, Postemergence, scale 0 to 100 (0 no effect, 100 complete control), read-out: Corn plant response rating
[14] = pre-emergence, Preemergence, scale 0 to 100, 0 no effect, 100 complete control, read-out: Plant response rating, Corn
[15] = post-emergence, Postemergence, scale 0 to 100 (0 no effect, 100 complete control), read-out: Goosegrass plant response rating
[16] = pre-emergence, Preemergence, scale 0 to 100, 0 no effect, 100 complete control, read-out: Plant response rating, Goosegrass
[17] = pre-emergence, Preemergence, scale 0 to 100, read-out: Plant response rating, Goosegrass

CCOC(=O)c1nc(-c2ccc(Cl)cc2)nc(N)c1Cl [Compound 64, ethyl 6-amino-5-chloro-2-(4-chlorophenyl)-4-pyrimidinecarboxylate]
pest or weed control at 125 g/ha [1, 12]: 60% | pest or weed control at 31 g/ha ([1]; post-emergence, Postemergence, 31 g ai/ha, read-out: Plant response rating (scale of 0 to 100), Surinam Grass): 20% | pest or weed control at 62 g/ha [1, 12]: 60% | pest or weed control at 62 g/ha ([1]; pre-emergence, Preemergence, scale 0 to 100, 0 no effect, 100 complete control, read-out: Plant response rating, Surinam Grass): 0% | pest or weed control at 125 g/ha ([1]; pre-emergence, Preemergence, scale 0 to 100, read-out: Plant response rating, Surinam Grass): 50% | pest or weed control at 250 g/ha ([1]; pre-emergence, Preemergence, 250 g ai/ha, scale 0 to 100, read-out: Plant response rating, Surinam Grass): 90% | Corn plant response rating (crop injury, 0 = no effect, 100 = complete kill) at 31 g/ha (corn (Zea mays); post-emergence, Postemergence, read-out: Plant response rating (scale of 0 to 100), Corn): 20% | Corn plant response rating (crop injury, 0 = no effect, 100 = complete kill) at 62 g/ha (corn (Zea mays); [13]): 50% | Corn plant response rating (crop injury, 0 = no effect, 100 = complete kill) at 125 g/ha (corn (Zea mays); [13]): 50% | Corn plant response rating (crop injury, 0 = no effect, 100 = complete kill) at 31 g/ha (corn (Zea mays); [14]): 0% | Corn plant response rating (crop injury, 0 = no effect, 100 = complete kill) at 62 g/ha (corn (Zea mays); [14]): 0% | Corn plant response rating (crop injury, 0 = no effect, 100 = complete kill) at 125 g/ha (corn (Zea mays); pre-emergence, Preemergence, scale 0 to 100, read-out: Plant response rating, Corn): 20% | Corn plant response rating (crop injury, 0 = no effect, 100 = complete kill) at 250 g/ha (corn (Zea mays); pre-emergence, Preemergence, 250 g ai/ha, scale 0 to 100): 30% | pest or weed control at 31 g/ha ([2]; post-emergence, Postemergence, read-out: Plant response rating (scale of 0 to 100), Goosegrass): 35% | pest or weed control at 62 g/ha [2, 15]: 35% | pest or weed control at 125 g/ha [2, 15]: 60% | pest or weed control at 250 g/ha ([2]; post-emergence, Postemergence, scale 0 to 100, read-out: Plant response rating, Goosegrass): 70% | pest or weed control at 31 g/ha [2, 16]: 0% | pest or weed control at 62 g/ha [2, 16]: 0% | pest or weed control at 125 g/ha [2, 17]: 0% | pest or weed control at 250 g/ha [2, 17]: 75% | Plant response rating (scale of 0 to 100), Ryegrass, Italian ([3]; 31 g ai/ha): 5 | Plant response rating, Ryegrass, Italian ([3]; 250 g ai/ha, scale 0 to 100): 45 | pest or weed control at 62 g/ha ([3]; Lolium multiflorum, post-emergence, 62 g ai/ha, scale 0 to 100 (0 no effect, 100 complete control), read-out: Ryegrass, Italian plant response rating): 30% | pest or weed control at 125 g/ha ([3]; Lolium multiflorum, post-emergence, 125 g ai/ha, scale 0 to 100 (0 no effect, 100 complete control), read-out: Ryegrass, Italian plant response rating): 35% | Plant response rating (scale of 0 to 100), Blackgrass ([4]; 31 g ai/ha): 40 | Plant response rating, Blackgrass ([4]; 250 g ai/ha, scale 0 to 100): 50 | pest or weed control at 62 g/ha ([4]; Alopecurus myosuroides, post-emergence, 62 g ai/ha, scale 0 to 100 (0 no effect, 100 complete control), read-out: Blackgrass plant response rating): 45% | pest or weed control at 125 g/ha ([4]; Alopecurus myosuroides, post-emergence, 125 g ai/ha, scale 0 to 100 (0 no effect, 100 complete control), read-out: Blackgrass plant response rating): 50% | Plant response rating (scale of 0 to 100), Canarygrass ([5]; 31 g ai/ha): 5 | Plant response rating, Canarygrass ([5]; 250 g ai/ha, scale 0 to 100): 10 | pest or weed control at 62 g/ha ([5]; Phalaris minor, post-emergence, 62 g ai/ha, scale 0 to 100 (0 no effect, 100 complete control), read-out: Canarygrass plant response rating): 5% | pest or weed control at 125 g/ha ([5]; Phalaris minor, post-emergence, 125 g ai/ha, scale 0 to 100 (0 no effect, 100 complete control), read-out: Canarygrass plant response rating): 10% | Plant response rating (scale of 0 to 100), Bromegrass, Downy ([6]; 31 g ai/ha): 10 | Plant response rating, Bromegrass, Downy ([6]; 250 g ai/ha, scale 0 to 100): 20 | pest or weed control at 62 g/ha ([6]; Bromus tectorum, post-emergence, 62 g ai/ha, scale 0 to 100 (0 no effect, 100 complete control), read-out: Bromegrass, Downy plant response rating): 15% | pest or weed control at 125 g/ha ([6]; Bromus tectorum, post-emergence, 125 g ai/ha, scale 0 to 100 (0 no effect, 100 complete control), read-out: Bromegrass, Downy plant response rating): 20% | Plant response rating (scale of 0 to 100), Foxtail, Green ([7]; 31 g ai/ha): 0 | Plant response rating, Foxtail, Green ([7]; 250 g ai/ha, scale 0 to 100): 45 | pest or weed control at 62 g/ha ([7]; Setaria viridis, post-emergence, 62 g ai/ha, scale 0 to 100 (0 no effect, 100 complete control), read-out: Foxtail, Green plant response rating): 30% | pest or weed control at 125 g/ha ([7]; Setaria viridis, post-emergence, 125 g ai/ha, scale 0 to 100 (0 no effect, 100 complete control), read-out: Foxtail, Green plant response rating): 40% | Plant response rating (scale of 0 to 100), Wheat ([8]; 31 g ai/ha): 0 | Plant response rating, Wheat ([8]; 250 g ai/ha, scale 0 to 100): 10 | plant injury at 62 g/ha ([8]; Triticum aestivum, post-emergence, 62 g ai/ha, scale 0 to 100 (0 no effect, 100 complete control), read-out: Wheat plant response rating): 0% | plant injury at 125 g/ha ([8]; Triticum aestivum, post-emergence, 125 g ai/ha, scale 0 to 100 (0 no effect, 100 complete control), read-out: Wheat plant response rating): 10% | Plant response rating (scale of 0 to 100), Oat, Wild (wild oat (Avena fatua); 31 g ai/ha): 5 | Plant response rating, Oat, Wild (wild oat (Avena fatua); 250 g ai/ha, scale 0 to 100): 10 | pest or weed control at 62 g/ha (wild oat (Avena fatua); Avena fatua, post-emergence, 62 g ai/ha, scale 0 to 100 (0 no effect, 100 complete control), read-out: Oat, Wild plant response rating): 5% | pest or weed control at 125 g/ha (wild oat (Avena fatua); Avena fatua, post-emergence, 125 g ai/ha, scale 0 to 100 (0 no effect, 100 complete control), read-out: Oat, Wild plant response rating): 10% | Plant response rating (scale of 0 to 100), Windgrass ([9]; 31 g ai/ha): 40 | Plant response rating, Windgrass ([9]; 250 g ai/ha, scale 0 to 100): 60 | pest or weed control at 62 g/ha ([9]; Apera spica-venti, post-emergence, 62 g ai/ha, scale 0 to 100 (0 no effect, 100 complete control), read-out: Windgrass plant response rating): 55% | pest or weed control at 125 g/ha ([9]; Apera spica-venti, post-emergence, 125 g ai/ha, scale 0 to 100 (0 no effect, 100 complete control), read-out: Windgrass plant response rating): 55% | Plant response rating (scale of 0 to 100), Barley ([10]; 31 g ai/ha): 20 | Plant response rating, Barley ([10]; 250 g ai/ha, scale 0 to 100): 100 | plant injury at 62 g/ha ([10]; Hordeum vulgare, post-emergence, 62 g ai/ha, scale 0 to 100 (0 no effect, 100 complete control), read-out: Barley plant response rating): 20% | Redstem plant response rating ([11]; 32 g ai/ha): 60 | Redstem plant response rating ([11]; 64 g ai/ha): 60 | Redstem plant response rating ([11]; 125 g ai/ha): 60 | Redstem plant response rating ([11]; 250 g ai/ha): 80 | Plant response rating, Redstem ([11]; 16 g ai/ha): 20
